Laboratory results published in patent publication US11098021B2, “Phenylsulfonamido-benzofuran derivatives and uses thereof in the treatment of proliferative diseases” (Memorial Sloan-Kettering Cancer Center, priority 2015, dated 2021).

Key:
Assay type in all cases: cell-based
[1] = system: MCL-1-addicted cancer cell-line, H23; experiment: apoptosis induction in MCL-1-addicted cancer cell line H23; details: H23 cells
[2] = system: DMS53, SW1417, and H82 cell lines; experiment: selective apoptotic induction in cell lines addicted to BCL-2, BCL-XL or MCL-1; details: MCL-1 addicted cancer cell line (H82) over BCL-2 (DMS53) or BCL-XL (SW1417) addicted cancer cell lines; FIG. 2B
[3] = system: MCL-1-addicted cancer cell-line, H82; experiment: apoptosis induction in MCL-1-addicted cancer cell line H82; details: H82 cells
[4] = 1 µM of compound, FIG. 1B legend

## CCOC(=O)c1c(C)oc2cc(Br)c(NS(=O)(=O)c3ccc(OC)cc3)cc12 [Compound 1]
[1]; 1 μM of compound, FIG. 1B
  apoptosis induction: robust apoptosis
[1]; [4]
  apoptosis induction: robust apoptosis
[2]
  selectivity of apoptosis induction: selectively induce apoptosis
[3]; 1 μM of compound, FIG. 1B
  apoptosis induction: robust apoptosis
[3]; [4]
  apoptosis induction: robust apoptosis
